In general, IC50 refers to the concentration that inhibits the measured activity by half.

What all share (assay type): biochemical
Experiment [1] concerns the target T1, hyaluronidase type IV-S from a bovine testis (Bos taurus, UniProt Q2YDK3).
T1 construct: gene SPAM1
T1 sequence (Q2YDK3 36-553): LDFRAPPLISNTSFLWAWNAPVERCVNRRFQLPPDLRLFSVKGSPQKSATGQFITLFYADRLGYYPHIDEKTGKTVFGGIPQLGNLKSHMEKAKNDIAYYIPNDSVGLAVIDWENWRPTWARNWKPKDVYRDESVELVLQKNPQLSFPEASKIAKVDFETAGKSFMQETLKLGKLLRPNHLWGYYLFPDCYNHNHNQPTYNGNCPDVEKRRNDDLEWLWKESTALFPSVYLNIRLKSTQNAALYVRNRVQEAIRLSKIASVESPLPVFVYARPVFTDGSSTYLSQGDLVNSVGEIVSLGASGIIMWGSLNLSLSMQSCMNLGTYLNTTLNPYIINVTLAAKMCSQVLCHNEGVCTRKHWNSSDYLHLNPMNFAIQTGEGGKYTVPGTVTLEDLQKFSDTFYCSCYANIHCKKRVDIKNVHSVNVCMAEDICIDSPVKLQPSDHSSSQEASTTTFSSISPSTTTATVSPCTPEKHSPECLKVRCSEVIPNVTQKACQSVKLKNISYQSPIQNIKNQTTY
The experiment in a line: Morgan-Elson colorimetric hyaluronidase assay.

Experiment [2] concerns the target T1, hyaluronidase type IV-S from a bovine testis. In words: Morgan-Elson colorimetric hyaluronidase assay. The source holds these as a separate data set.
For experiment [3] the target is unchanged. In words: Morgan-Elson colorimetric hyaluronidase assay, positive control.

Where a name gives a salt, the structure may show the parent alone.

As for `CCCCCCCCCCCCCC(=O)OC[C@H](O)[C@H]1OC(=O)C(O[C@H]2O[C@H](CO)[C@@H](O)[C@H](O)[C@H]2O)=C1O` [6-sMyri-AA-2G], the “Morgan-Elson colorimetric hyaluronidase assay” value in experiment [1] was 6-sMyri-AA-2G and 6-sPalm-AA-2G significantly inhibited the activity more than 6-sDode-AA-2G.

Consider `CCCCCCCCCCCCCCCC(=O)OC[C@H](O)[C@H]1OC(=O)C(O)=C1O` [6-Palm-AA, 6-O-palmitoyl-L-AA], for which, in experiment [2], the half-maximal inhibitory concentration (IC50) was 194 µM.

On to `CCCCCCCC(CCCCCCC)C(=O)OC[C@H](O)[C@H]1OC(=O)C(O[C@H]2O[C@H](CO)[C@@H](O)[C@H](O)[C@H]2O)=C1O` [6-bPalm-AA-2G], for which the “Morgan-Elson colorimetric hyaluronidase assay” value in experiment [1] was 6-bMyri-AA-2G and 6-bPalm-AA-2G significantly inhibited the activity more than 6-bDode-AA-2G.

`CCCCCCCCCCCCCCCC(=O)OC[C@H](O)[C@H]1OC(=O)C(O[C@H]2O[C@H](CO)[C@@H](O)[C@H](O)[C@H]2O)=C1O` [6-sPalm-AA-2G, 2-O-α-D-Glucopyranosyl-6-O-hexadecanoyl-L-ascorbic acid]: in experiment [2], 22 µM corresponded to half-maximal inhibition (IC50).

In experiment [2], `CCCCCCCCCCCCCCCC(=O)OC[C@H](O)[C@H]1OC(=O)C(O[C@@H]2O[C@H](CO)[C@@H](O)[C@H](O)[C@H]2O)=C1O` [6-sPalm-AA-2βG, 2-O-β-D-glucopyranosyl-6-O-hexadecanoyl-L-ascorbic acid] displayed a 50% inhibitory concentration (IC50) of 25 µM.

As to `CCCCCCC(CCCCCC)C(=O)OC[C@H](O)[C@H]1OC(=O)C(O[C@H]2O[C@H](CO)[C@@H](O)[C@H](O)[C@H]2O)=C1O` [6-bMyri-AA-2G], the “Morgan-Elson colorimetric hyaluronidase assay” value in experiment [1] is 6-bMyri-AA-2G and 6-bPalm-AA-2G significantly inhibited the activity more than 6-bDode-AA-2G.

Turning to `O=C(O)c1cc(=O)c2c(OCC(O)COc3cccc4oc(C(=O)O)cc(=O)c34)cccc2o1` [DSCG, Cromolyn sodium salt], the “Morgan-Elson colorimetric hyaluronidase assay, positive control” value in experiment [3] is recorded as “Cromolyn sodium salt (DSCG), which is used clinically as an anti-allergy drug, was used as a positive control”.

Values taken from article PMC6149712, “Anti-Allergic Activity of Monoacylated Ascorbic Acid 2-Glucosides” (Molecules : A Journal of Synthetic Chemistry and Natural …, 2017).
